From paper PMC5908784, “Extracellular loops 2 and 3 of the calcitonin receptor selectively modify agonist binding and efficacy” (Biochemical Pharmacology, 2018) come the findings set out here.

Changes are numbered by the printed parent chain. Where a SMILES comes first, the peptide text is derived from it. Bridges are numbered along the chain shown (N, C = ends).

What all share (test): IP1 accumulation
Common to all, as to format: cell-based
Holding throughout (settings): mean ± S.E.M.; for Emax: IP1 maximal response, SEM

The target in test [1] is T1, hCTR I371A (Homo sapiens, UniProt P30988, I371A).
T1 construct: c-Myc (N); expressed in transfected cells
T1 sequence (P30988 25-474 I371A): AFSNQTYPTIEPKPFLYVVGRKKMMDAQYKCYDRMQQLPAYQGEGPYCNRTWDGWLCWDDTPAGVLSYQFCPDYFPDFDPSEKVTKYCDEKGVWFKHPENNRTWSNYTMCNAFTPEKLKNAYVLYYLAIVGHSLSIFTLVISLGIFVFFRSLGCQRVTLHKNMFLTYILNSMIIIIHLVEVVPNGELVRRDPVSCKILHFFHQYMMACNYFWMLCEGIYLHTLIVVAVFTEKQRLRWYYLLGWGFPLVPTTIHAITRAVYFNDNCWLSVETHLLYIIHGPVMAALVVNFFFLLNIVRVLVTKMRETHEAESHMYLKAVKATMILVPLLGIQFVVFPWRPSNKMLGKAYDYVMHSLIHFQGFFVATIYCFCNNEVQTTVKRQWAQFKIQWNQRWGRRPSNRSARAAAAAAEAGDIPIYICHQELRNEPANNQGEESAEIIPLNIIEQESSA
In short, it runs like this: (§1)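 Ligand-induced IP1 (60 min, LiCl) measured by HTRF; normalized to 100 μM ATP response.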

Test [2] concerns the target T2, hCTR P360A (Homo sapiens, UniProt P30988, P360A).
T2 construct: expressed in transfected cells
T2 sequence (P30988 25-474 P360A): T1 sequence (P30988 25-474 I371A) with P336A, A347I
In short, it runs like this:
as §1

Test [3] deals with T3, hCTR S292A (Homo sapiens, UniProt P30988, S292A).
T3 construct: expressed in transfected cells
T3 sequence (P30988 25-474 S292A): T1 sequence (P30988 25-474 I371A) with S268A, A347I
The procedure, abridged:
as §1

In test [4] the target is T4, hCTR V358A (Homo sapiens, UniProt P30988, V358A).
T4 construct: c-Myc (N); expressed in transfected cells
T4 sequence (P30988 25-474 V358A): T1 sequence (P30988 25-474 I371A) with V334A, A347I
The procedure, abridged:
as §1

For test [5], the target named is T5, hCTR Y374A (Homo sapiens, UniProt P30988, Y374A).
T5 construct: c-Myc (N); expressed in transfected cells
T5 sequence (P30988 25-474 Y374A): T1 sequence (P30988 25-474 I371A) with A347I, Y350A
The procedure, abridged:
as §1

Where [6] appears, read: IP1, CV1-FlpIn cells, 60 min, LiCl.

By Emax is commonly meant the maximal effect, on the per cent scale that the assay sets. What is called EC50 is the midpoint of the concentration-response curve. The low end stands for greater potency, the high end for weaker potency.

For `CC[C@H](C)[C@H](NC(=O)[C@H](C)NC(=O)[C@@H](NC(=O)[C@H](CCC(N)=O)NC(=O)[C@@H]1CCCN1C(=O)[C@H](Cc1ccccc1)NC(=O)[C@@H](NC(=O)[C@H](Cc1c[nH]cn1)NC(=O)[C@H](Cc1ccccc1)NC(=O)[C@H](CCCCN)NC(=O)[C@H](CC(N)=O)NC(=O)[C@H](Cc1ccccc1)NC(=O)[C@H](CC(=O)O)NC(=O)[C@H](CCC(N)=O)NC(=O)[C@@H](NC(=O)[C@H](Cc1ccc(O)cc1)NC(=O)[C@@H](NC(=O)CNC(=O)[C@H](CC(C)C)NC(=O)[C@H](CCSC)NC(=O)[C@@H]1CSSC[C@H](N)C(=O)NCC(=O)N[C@@H](CC(N)=O)C(=O)N[C@@H](CC(C)C)C(=O)N[C@@H](CO)C(=O)N[C@@H]([C@@H](C)O)C(=O)N1)[C@@H](C)O)[C@@H](C)O)[C@@H](C)O)[C@@H](C)O)C(=O)NCC(=O)N[C@H](C(=O)NCC(=O)N[C@@H](C)C(=O)N1CCC[C@H]1C(N)=O)C(C)C` [hCT], the maximum response (Emax) was 42 ± 3% in test [1]; 95 ± 8% in test [2]; 70 ± 6% in test [3]; 126 ± 9% in test [4]; 110 ± 9% in test [5].
`CSCC[C@H](NC(=O)CNC(=O)[C@H](CO)NC(=O)[C@H](Cc1ccccc1)NC(=O)[C@H](CCCNC(=N)N)NC(=O)[C@H](Cc1c[nH]cn1)NC(=O)[C@H](Cc1ccccc1)NC(=O)[C@H](CC(N)=O)NC(=O)[C@H](CC(N)=O)NC(=O)[C@H](CC(C)C)NC(=O)[C@H](CC(N)=O)NC(=O)[C@H](CCCNC(=N)N)NC(=O)[C@H](Cc1c[nH]c2ccccc12)NC(=O)[C@H](Cc1ccc(O)cc1)NC(=O)[C@H](C)NC(=O)[C@H](CO)NC(=O)[C@H](CC(C)C)NC(=O)[C@@H](NC(=O)[C@@H]1CSSC[C@H](N)C(=O)N[C@@H](CO)C(=O)N[C@@H](CC(N)=O)C(=O)N[C@@H](CC(C)C)C(=O)N[C@@H](CO)C(=O)N[C@@H]([C@@H](C)O)C(=O)N1)C(C)C)C(=O)NCC(=O)N[C@@H](Cc1ccccc1)C(=O)NCC(=O)N1CCC[C@H]1C(=O)N[C@@H](CCC(=O)O)C(=O)N[C@H](C(=O)N1CCC[C@H]1C(N)=O)[C@@H](C)O` [pCT] (H-CSNLSTCVLSAYWRNLNNFHRFSGMGFGPETP-NH2; disulfide 1-7): the EC50 is 4.17 nM in test [1] (setting [6]); 85.1 nM in test [2] (setting [6]); 4.27 nM in test [3] (setting [6]); 3.31 nM in test [4] (setting [6]); 12.3 nM in test [5] (setting [6]). Moreover, the maximal response (Emax) in test [1] was determined as 61 ± 6%; in test [2] it was 107 ± 12%; in test [3], 92 ± 7%; in test [4], 73 ± 6%; in test [5], 106 ± 6%.
As to `CC(C)C[C@H](NC(=O)[C@H](CCCCN)NC(=O)CNC(=O)[C@H](CC(C)C)NC(=O)[C@@H](NC(=O)[C@@H]1CSSC[C@H](N)C(=O)N[C@@H](CO)C(=O)N[C@@H](CC(N)=O)C(=O)N[C@@H](CC(C)C)C(=O)N[C@@H](CO)C(=O)N[C@@H]([C@@H](C)O)C(=O)N1)C(C)C)C(=O)N[C@@H](CO)C(=O)N[C@@H](CCC(N)=O)C(=O)N[C@@H](CCC(=O)O)C(=O)N[C@@H](CC(C)C)C(=O)N[C@@H](Cc1c[nH]cn1)C(=O)N[C@@H](CCCCN)C(=O)N[C@@H](CC(C)C)C(=O)N[C@@H](CCC(N)=O)C(=O)N[C@H](C(=O)N[C@@H](Cc1ccc(O)cc1)C(=O)N1CCC[C@H]1C(=O)N[C@@H](CCCNC(=N)N)C(=O)N[C@H](C(=O)N[C@@H](CC(N)=O)C(=O)N[C@H](C(=O)NCC(=O)N[C@@H](CO)C(=O)NCC(=O)N[C@H](C(=O)N1CCC[C@H]1C(N)=O)[C@@H](C)O)[C@@H](C)O)[C@@H](C)O)[C@@H](C)O` [sCT], the maximal response (Emax) in test [1] was found to be 31 ± 14%; in test [2] it was 144 ± 5%; in test [3] it was 91 ± 6%; in test [4], 123 ± 6%; in test [5], 102 ± 6%.
